Assay [1] relates to primary human mesenchymal stem cells (hMSCs). The assay can be described thus: Tenocyte differentiation screening in hMSCs (SCXA-positive cells, 4 days). The class given is cell-based. The conditions noted are these: 96 h, fold change over DMSO. In outline: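 Primary hMSCs at passage 3–6 were treated with compound, fixed and immunostained for SCXA, and SCXA-positive cells per well were counted by imaging. Counts were normalized to DMSO wells as fold change, averaged over triplicates, and EC50 was fitted, with high-dose values manually corrected for solubility.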

For assay [2], the system named is Wnt-responsive promoter driving firefly luciferase in SW480 cells. In words: Wnt reporter (SP5 promoter-luciferase) screening assay in SW480 cells. It counts as cell-based. The settings on record: Homo sapiens, 24-40 h, top concentration ten micromolar. In outline: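 SW480 (APC-mutant colon) cells stably transduced with lentiviral SP5-promoter (eight TCF/LEF sites) firefly luciferase, ~10,000 cells/well. Signals normalized to DMSO controls for EC50 fitting.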

By EC50 is commonly meant the concentration needed to bring the measured effect to its halfway point. A higher EC50 goes with a need for much substance.

Structures are written as SMILES.

For `Nc1ncc(NC(=O)c2n[nH]c3ccc(-c4cncc(CN5CCCCC5)c4)cc23)cn1` [compound 176, N-(2-Aminopyrimidin-5-yl)-5-(5-(piperidin-1-ylmethyl)pyridin-3-yl)-1H-indazole-3-carboxamide], the EC50 in assay [1] came to 4650 nM; in assay [2], 30 nM.
The like results for `O=C(Nc1cccnc1)c1n[nH]c2ccc(-c3cncc(CN4CCCCC4)c3)cc12` [compound 46, 5-(5-(Piperidin-1-ylmethyl)pyridin-3-yl)-N-(pyridin-3-yl)-1H-indazole-3-carboxamide] were, in that order, 5060 nM and 15 nM.
In the same order, the values of `CN1CCC(NC(=O)c2n[nH]c3ccc(-c4cncc(CN5CCCCC5)c4)cc23)CC1` [compound 87, N-(1-Methylpiperidin-4-yl)-5-(5-(piperidin-1-ylmethyl)pyridin-3-yl)-1H-indazole-3-carboxamide] are 1580 nM and 2440 nM.
In the same order, the values of `O=C(Nc1ccc(N2CCCC2)nc1)c1n[nH]c2ccc(-c3cccnc3)cc12` [compound 53, 5-(Pyridin-3-yl)-N-(6-(pyrrolidin-1-yl)pyridin-3-yl)-1H-indazole-3-carboxamide] are greater than 100000 nM and 63 nM.
Regarding `O=C(Nc1cccnc1)c1n[nH]c2ccc(-c3cncc(Oc4ccccc4)c3)cc12` [compound 56, 5-(5-Phenoxypyridin-3-yl)-N-(pyridin-3-yl)-1H-indazole-3-carboxamide], the figures for the EC50 in assay [1] and in assay [2] were 625 nM and 160 nM, respectively.
In the same order, the values of `N#Cc1cncc(-c2ccc3[nH]nc(C(=O)Nc4cccnc4)c3c2)c1` [compound 66, 5-(5-Cyanopyridin-3-yl)-N-(pyridin-3-yl)-1H-indazole-3-carboxamide] are greater than 100000 nM and no less than 10000 nM.
In the same order, the values of `O=C(Nc1ccc(Oc2ccccc2F)nc1)c1n[nH]c2ccc(-c3cccnc3)cc12` [compound 18, N-(6-(2-fluorophenoxy)pyridin-3-yl)-5-(pyridin-3-yl)-1H-indazole-3-carboxamide] are 5380 nM and 122 nM.
In the same order, the values of `O=C(Nc1ccc2c(c1)OCO2)c1n[nH]c2ccc(-c3cncc(CN4CCCCC4)c3)cc12` [compound 78, N-(Benzo[d][1,3]dioxol-5-yl)-5-(5-(piperidin-1-ylmethyl)pyridin-3-yl)-1H-indazole-3-carboxamide] are greater than 100000 nM and 239 nM.
On to `O=C(Nc1cncc(F)c1)c1n[nH]c2ccc(-c3cncc(CN4CCCCC4)c3)cc12` [compound 168, N-(5-Fluoropyridin-3-yl)-5-(5-(piperidin-1-ylmethyl)pyridin-3-yl)-1H-indazole-3-carboxamide], for which the EC50 in assay [1] is greater than 100000 nM; in assay [2], 66 nM.
Regarding `CS(=O)(=O)c1ccc(NC(=O)c2n[nH]c3ccc(-c4cncc(CN5CCCCC5)c4)cc23)cn1` [compound 185, N-(6-(Methylsulfonyl)pyridin-3-yl)-5-(5-(piperidin-1-ylmethyl)pyridin-3-yl)-1H-indazole-3-carboxamide], the EC50 in assay [1] came to 6440 nM; in assay [2], 27 nM.
The like results for `COc1ccc(-c2ccc3[nH]nc(C(=O)Nc4cccnc4)c3c2)cn1` [compound 54, 5-(6-Methoxypyridin-3-yl)-N-(pyridin-3-yl)-1H-indazole-3-carboxamide] were, in that order, greater than 100000 nM and 158 nM.
Regarding `O=C(Nc1ccccc1)c1n[nH]c2ccc(-c3cncc(CN4CCCCC4)c3)cc12` [compound 82, N-Phenyl-5-(5-(piperidin-1-ylmethyl)pyridin-3-yl)-1H-indazole-3-carboxamide], the EC50 was greater than 100000 nM in assay [1] and 143 to 188 nM in assay [2].
The like results for `O=C(Nc1ccc(C(F)(F)F)nc1)c1n[nH]c2ccc(-c3cccnc3)cc12` [compound 3, 5-(Pyridin-3-yl)-N-(6-(trifluoromethyl)pyridin-3-yl)-1H-indazole-3-carboxamide] were, in that order, greater than 100000 nM and 200 nM.
In the same order, the values of `O=C(Nc1ccc(N2CCCC2)nc1)c1n[nH]c2ccc(-c3cncc(CN4CCC(O)CC4)c3)cc12` [compound 170, 5-(5-((4-Hydroxypiperidin-1-yl)methyl)pyridin-3-yl)-N-(6-(pyrrolidin-1-yl)pyridin-3-yl)-1H-indazole-3-carboxamide] are greater than 100000 nM and 43 nM.
Regarding `O=C(Nc1ccc(N2CCC2)nc1)c1n[nH]c2ccc(-c3cncc(CN4CCCCC4)c3)cc12` [compound 174, N-(6-(Azetidin-1-yl)pyridin-3-yl)-5-(5-(piperidin-1-ylmethyl)pyridin-3-yl)-1H-indazole-3-carboxamide], the values for the concentration giving a half-maximal response (EC50) in assay [1] and in assay [2] were 5540 nM and 48 nM, respectively.
The like results for `O=C(Nc1cnccc1C(F)(F)F)c1n[nH]c2ccc(-c3cccnc3)cc12` [compound 48, 5-(Pyridin-3-yl)-N-(4-(trifluoromethyl)pyridin-3-yl)-1H-indazole-3-carboxamide] were, in that order, greater than 100000 nM and no less than 10000 nM.
With `Nc1cncc(-c2ccc3[nH]nc(C(=O)Nc4ccc(N5CCCCC5)nc4)c3c2)c1` [compound 182, 5-(5-Aminopyridin-3-yl)-N-(6-(piperidin-1-yl)pyridin-3-yl)-1H-indazole-3-carboxamide], the EC50 in assay [1] worked out at 8040 nM; in assay [2], 35 nM.

Source of the values: patent US10806726B2, “Methods of using indazole-3-carb oxamides and their use as Wnt/B-catenin signaling pathway inhibitors” (Samumed, LLC, priority 2016, dated 2020).
